Reference: patent publication US5998442A, “Benzo [B] thiophene compounds, and compositions for treating bone loss, and hyperlipidemia” (Eli Lilly and Company, priority 1997, dated 1999)
pIC50: −log10 of the molar value.

Tests used:
[1] = test system: serum cholesterol, ovariectomized rats; test: Serum cholesterol in ovariectomized rats (4 days daily oral dosing); format: in vivo, rat (female Sprague Dawley); conditions: for inhibition in vivo at 0.1 mg/kg: 0.1 mg/kg PO; for inhibition in vivo at 1 mg/kg: 1.0 mg/kg PO; for inhibition in vivo at 10 mg/kg: 10.0 mg/kg PO
Description: (§1) In the examples illustrating the methods, a postmenopausal model was used in which effects of different treatments upon circulating lipids were determined.
(§2) Seventy-five day old female Sprague Dawley rats (weight range of 200 to 225 g) were obtained from Charles River Laboratories (Portage, Mich.). The animals were either bilaterally ovariectomized (OVX) or exposed to a Sham surgical procedure at Charles River Laboratories, and then shipped after one week. Upon arrival, they were housed in metal hanging cages in groups of 3 or 4 per cage and had ad libitum access to food (calcium content approximately 0.5%) and water for one week. Room temperature was maintained at 22.2°±1.70° C. with a minimum relative humidity of 40%. The photoperiod in the room was 12 hours light and 12 hours dark.
(§3) After a one week acclimation period (therefore, two weeks post-OVX) daily dosing with test compound was initiated. […] Animals were dosed daily for 4 days. Following the dosing regimen, animals were weighed and anesthetized with a ketamine: Xylazine (2:1, V:V) mixture and a blood sample was collected by cardiac puncture. The animals were then sacrificed by asphyxiation with CO2, the uterus was removed through a midline incision, and a wet uterine weight was determined.
Blood samples were allowed to clot at room temperature for 2 hours, and serum was obtained following centrifugation for 10 minutes at 3000 rpm. Serum cholesterol was determined using a Boehringer Mannheim Diagnostics high performance cholesterol assay. Briefly the cholesterol was oxidized to cholest-4-en-3-one and hydrogen peroxide. The hydrogen peroxide was then reacted with phenol and 4-aminophenazone in the presence of peroxidase to produce a p-quinone imine dye, which was read spectrophotemetrically at 500 nm. Cholesterol concentration was then calculated against a standard curve. The entire assay was automated using a Biomek Automated Workstation. […]
(§4) The data presented in Table 1 below reflects the response of 5 to 6 rats per treatment.

[2] = test system: Distal Femur Metaphysis, ovariectomized rats; test: Osteoporosis Test Procedure: distal femur metaphysis X-ray image analysis; format: in vivo, rat; conditions: 35 days
Description: (§5) Following the General Preparation Procedure, infra, the rats were treated daily for 35 days (6 rats per treatment group) and sacrificed by carbon dioxide asphyxiation on the 36th day. The 35 day time period was sufficient to allow maximal reduction in bone density, measured as described herein. At the time of sacrifice, the uteri were removed, dissected free of extraneous tissue, and the fluid contents were expelled before determination of wet weight in order to confirm estrogen deficiency associated with complete ovariectomy. […] The uteri were then placed in 10% neutral buffered formalin to allow for subsequent histological analysis. The right femurs were excised and digitilized x-rays generated and analyzed by an image analysis program (NIH image) at the distal metaphysis. The proximal aspect of the tibiae from these animals were also scanned by quantitative computed tomography. […] Distal femur metaphysis and proximal tibiae data presented in Tables 2 and 3 below, respectively are the results of formula I compound treatments compared to intact and ovariectomized test animals. Results are reported as percent protection relative to ovariectomy.

[3] = test system: Uterine Eosinophil Peroxidase (EPO); test: Uterine Eosinophil Peroxidase (EPO) Assay in ovariectomized rats; format: in vivo, rat (female Sprague Dawley); design: Uterine EPO (Vmax): unit not given here
Source text: as §2, §3
Uteri were kept at 4° C. until time of enzymatic analysis. The uteri were then homogenized in 50 volumes of 50 mM Tris buffer (pH-8.0) containing 0.005% Triton X-100. Upon addition of 0.01% hydrogen peroxide and 10 mM O-phenylenediamine (final concentrations) in Tris buffer, increase in absorbance was monitored for one minute at 450 nm. The presence of eosonophils in the uterus is an indication of estrogenic activity of a compound. The maximal velocity of a 15 second interval was determined over the initial, linear portion of the reaction curve.
As is expressed in the data below, estrogenicity also was assessed by evaluating the adverse response of eosinophil infiltration into the uterus.
as §4

[4] = test system: uterus, ovariectomized rats; test: Uterine weight in ovariectomized rats (4 days daily oral dosing); format: in vivo, rat (female Sprague Dawley); conditions: for change in vivo at 0.1 mg/kg: 0.1 mg/kg PO; for change in vivo at 1 mg/kg: 1.0 mg/kg PO; for change in vivo at 10 mg/kg: 10.0 mg/kg PO
Description: as §1, §2, §3
This uterine response to estrogen is well recognized in the art.
as §4

[5] = test system: MCF-7 breast adenocarcinoma cells; test: MCF-7 Proliferation Assay (tritiated thymidine); format: cell-based; conditions: Homo sapiens, MCF7, 48 hours, read-out: IC50
Description: MCF-7 breast adenocarcinoma cells (ATCC HTB 22) were maintained in MEM (minimal essential medium, phenol red-free, Sigma, St. Louis, Mo.) supplimented with 10% fetal bovine serum (FBS) (V/V), L-glutamine (2 mM), sodium pyruvate (1 mM), HEPES {(N-[2-hydroxyethyl]piperazine-N'-[2-ethanesulfonic acid]10 mM}, non-essential amino acids and bovine insulin (1 ug/mL) (maintenance medium). Ten days prior to assay, MCF-7 cells were switched to maintenance medium supplemented with 10% dextran coated charcoal stripped fetal bovine serum (DCC-FBS) assay medium) in place of 10% FBS to deplete internal stores of steroids. MCF-7 cells were removed from maintenance flasks using cell dissociation medium (Ca++/Mg++ free HBSS (phenol red-free) supplemented with 10 mM HEPES and 2 mM EDTA). Cells were washed twice with assay medium and adjusted to 80,000 cells/mL. Approximately […] (8,000 cells) were added to flat-bottom microculture wells (Costar 3596) and incubated at 37° C. in a 5% CO2 humidified incubator for 48 hours to allow for cell adherence and equilibration after transfer. Serial dilutions of drugs or DMSO as a diluent control were prepared in assay medium and […] to triplicate microcultures followed by […] assay medium for a final volume of […]. After an additional 48 hours at 37° C. in a 5% CO2 humidified incubator, microcultures were pulsed with tritiated thymidine (1 uCi/well) for 4 hours. Cultures were terminated by freezing at -70° C. for 24 hours followed by thawing and harvesting of microcultures using a Skatron Semiautomatic Cell Harvester. Samples were counted by liquid scintillation using a Wallac BetaPlace b counter. Results in Table 4 below show the IC50 for certain compounds of the instant invention. […]

[6] = test system: Proximal Tibiae, ovariectomized rats; test: Osteoporosis Test Procedure: proximal tibiae quantitative computed tomography; format: in vivo, rat; conditions: 35 days
Description: as §5

[7] = test system: bone, ovariectomized rats; test: Osteoporosis Test Procedure: bone loss in ovariectomized rats (summary); format: in vivo, rat; conditions: orally administered
Description: as §5

[8] = Rattus norvegicus, 96 h, read-out: Serum Cholesterol (% decrease vs. OVX)
[9] = Rattus norvegicus, 96 h, read-out: Uterine weight (% increase vs. OVX)
[10] = orally administered at 0.1 mg/kg/day

SMILES	inhibition in vivo at 0.1 mg/kg [1, 8] [%]	inhibition in vivo at 1 mg/kg [1, 8] [%]	inhibition in vivo at 10 mg/kg [1, 8] [%]	Uterine EPO (Vmax) ([3]; 0.1 mg/kg PO)	Uterine EPO (Vmax) ([3]; 1.0 mg/kg PO)	Uterine EPO (Vmax) ([3]; 10.0 mg/kg PO)	change in vivo at 0.1 mg/kg [4, 9] [%]	change in vivo at 1 mg/kg [4, 9] [%]	change in vivo at 10 mg/kg [4, 9] [%]	pIC50 [5]	Proximal Tibiae Total Bone Mineral Density (Quantitative Computed Tomography), percent protection relative to ovariectomy ([6]; 0.1 mg/kg oral) [%]	further results
O=C(c1ccc(OCCN2CCCCC2)cc1)c1c(-c2ccc(O)c(F)c2)sc2cc(O)ccc12 [Example 2, [2-(3-fluoro-4-hydroxyphenyl)-6-hydroxybenzo[b]thien-3-yl][4-[2-(1-piperidinyl)ethoxy]phenyl]methanone]	48.1	64.7	47.8	4.8	4.8	3.6	53.3	53.7	25.9	9.52	–	inhibition in vivo at 0.01 mg/kg ([1]; Rattus norvegicus, 96 h, 0.01 mg/kg PO, read-out: Serum Cholesterol (% decrease vs. OVX)): 21.7%; Distal Femur Metaphysis (X-ray Image Analysis-Gray Score), percent protection relative to ovariectomy ([2]; 0.01 mg/kg oral): 34.5%; Distal Femur Metaphysis (X-ray Image Analysis-Gray Score), percent protection relative to ovariectomy ([2]; 0.1 mg/kg oral): 34.1%; Distal Femur Metaphysis (X-ray Image Analysis-Gray Score), percent protection relative to ovariectomy ([2]; 1.0 mg/kg oral): 68.0%; Distal Femur Metaphysis (X-ray Image Analysis-Gray Score), percent protection relative to ovariectomy ([2]; 10.0 mg/kg oral): 70.0%; Uterine EPO (Vmax) ([3]; 0.01 mg/kg PO): 4.8; change in vivo at 0.01 mg/kg ([4]; Rattus norvegicus, 96 h, 0.01 mg/kg PO, read-out: Uterine weight (% increase vs. OVX)): 3.2%
C#C[C@]1(O)CC[C@H]2[C@@H]3CCc4cc(O)ccc4[C@H]3CC[C@@]21C [EE2, 17a-ethynyl estradiol, reference compound]	–	–	–	–	–	–	–	–	–	–	59.4	serum cholesterol (in words) [1, 10]: caused a decrease in serum cholesterol; Distal Femur Metaphysis (X-ray Image Analysis-Gray Score), percent protection relative to ovariectomy ([2]; oral, dose not given): 80.7%; prevention of bone loss (in words) [7]: prevented this loss; uterine weight (in words) [4, 10]: substantially greater than the uterine weight of ovariectomized test animals
Cc1cc(O)ccc1-c1sc2cc(O)ccc2c1C(=O)c1ccc(OCCN2CCCCC2)cc1 [Example 16, [2-(2-Methyl-4-hydroxyphenyl)-6-hydroxybenzo[b]thien-3-yl][4-[2-(1-piperidinyl)ethoxy]phenyl]methanone]	39.2	62.6	68.5	8.1	8.4	8.1	54.5	53.7	62.7	8.70	–	–
O=C(c1ccc(OCCN2CCCCC2)cc1)c1c(-c2cccc(O)c2)sc2cc(O)ccc12 [Example 12, [2-(3-Hydroxyphenyl)-6-hydroxybenzo[b]thien-3-yl][4-[2-(1-piperidinyl)ethoxy]phenyl]methanone]	24.3	52.3	49.1	2.0	2.6	2.4	15.5	22.7	16.7	8.49	-30.9	Proximal Tibiae Total Bone Mineral Density (Quantitative Computed Tomography), percent protection relative to ovariectomy ([6]; 1.0 mg/kg oral): 51.5%; Proximal Tibiae Total Bone Mineral Density (Quantitative Computed Tomography), percent protection relative to ovariectomy ([6]; 10.0 mg/kg oral): 79.7%
O=C(c1ccc(OCCN2CCCCC2)cc1)c1c(-c2cccc(F)c2)sc2cc(O)ccc12 [Example 22, [2-(3-Fluorophenyl)-6-hydroxybenzothien-3-yl] [4-[2-(1-piperidinyl)ethoxy]phenyl]methanone]	18.6	62	67.3	4.8	7.8	12.0	53.2	62.8	26.9	8.60	–	–
O=C(c1ccc(OCCN2CCCCC2)cc1)c1c(-c2ccccc2O)sc2cc(O)ccc12 [Example 10, [2-(2-Hydroxyphenyl)-6-hydroxybenzo[b]thien-3-yl][4-[2-(1-piperidinyl)ethoxy]phenyl]methanone]	7.8	19.5	33.2	2.8	1.7	3.7	-18.3	-21	10.6	8.00	–	–
